Patent US6645972B2, “Methods of treating leukemia” (Shire BioChem Inc., priority 2001, dated 2003)
Where a name gives a salt, the structure may show the parent alone.

Key:
KBM7 cells = test: response of KBM7 cells to STI-571 exposure; type: cell-based, human
Procedure: (§1) The cells were cultured in Iscove's modified Dulbecco's medium supplemented with 10% fetal calf serum (Invitrogen Corp., Carlsbad, Calif.) at 37° C. in atmosphere of 5% CO2 in air.

KBM5 cells = test: response of KBM5 cells to STI-571 exposure; type: cell-based, human
Procedure: as §1

KBM-5 cells = test: in vitro growth inhibition (MTS) assay, KBM-5; type: cell-based, human; conditions: 3 day MTS assay, 72 h exposure, read-out: IC50 (drug concentration which causes 50% growth inhibition)
Procedure: (§2) β-L Oddc was evaluated using an in vitro growth inhibition (MTS) assay. The description of the cell lines used and the details of the MTS assay are described below.
(§3) Cell lines: Two human CML, Ph+, p210 Bcr-Abl expressing cell lines were used, namely, KBM-5 and KBM-7. KBM-5 was derived from a patient in the blastic phase of CML and was evaluated to be absent of normal c-ABL. KBM-7 was identified previously to be a human near-haploid cell line. These two cell lines were further described in the references below, now incorporated by reference:
as §1
(§4) Growth inhibition (MTS) assay: The in vitro growth inhibition effect of β-L Oddc on leukemic cells was determined by measuring MTS (CellTiter 96®Aqueous One Solution Reagent, Promega Corporation, WI) dye absorbance by living cells. Briefly, cells were seeded in triplicate in 96-well microtiter plates (Falcon, USA) at a concentration of 4×10^5 cells /ml. After exposure to the β-L Oddc for 72 h, 20 μl of MTS solution were added to each well, the plates were incubated for additional 4 h at 37° C., and absorbance at 490 nm was measured.

[1] = tested on: KBM5-STI^R cells (STI-571-resistant KBM5); test: in vitro growth inhibition (MTS) assay, KBM5-STI^R; type: cell-based, human; conditions: 3 day MTS assay, 72 h exposure, read-out: IC50 (drug concentration which causes 50% growth inhibition)
KBM-7 cells = test: in vitro growth inhibition (MTS) assay, KBM-7; type: cell-based, human; conditions: 3 day MTS assay, 72 h exposure, read-out: IC50 (drug concentration which causes 50% growth inhibition)
Procedure: as §2, §3, §1, §4

[2] = tested on: KBM7-STI^R cells (STI-571-resistant KBM7); test: in vitro growth inhibition (MTS) assay, KBM7-STI^R; type: cell-based, human; conditions: 3 day MTS assay, 72 h exposure, read-out: IC50 (drug concentration which causes 50% growth inhibition)
Procedure: as §2, §3, §4

[3] = tested on: chronic myeloid leukemia in blastic phase (CML-BP); test: preliminary multicenter study in patients with CML-BP; type: in vivo, human; conditions: 8mg/m^2/day daily for 5 days, twenty one patients evaluable, 40 cycles, data not verified
Procedure: A preliminary study was conducted to investigate the activity of β-L Oddc in patients with chronic myeloid leukemia in blastic phase (CML-BP). The multicenter study was conducted using β-L Oddc 8mg/m^2/day daily for 5 days for patients with CML-BP who had received no prior chemotherapy for CML-BP. Patients who had received Gleevec therapy as sole prior therapy for CML-BP were also eligible. Twenty-six patients, 17 male, 26 performance score less than or equal to 2, median age 54 years (range 31-84) had been entered in the study to date. 13 (50%) patients received β-L Oddc as first therapy for CML-BP, 13 (50%) had failed prior Gleevec therapy for CML-BP. Response definitions are as follows: Complete hematologic response (CHR) requires normalization of peripheral counts and differentials with less than or equal to 5% marrow blasts for at least 4 weeks. Hematologic improvement (HI) is as with CHR but with persistence of thrombocytopenia less than 100×10^9/L and few immature peripheral cells. A partial hematologic response (PHR) is as per CHR, but allows persistence of, though less than or equal to 50% reduction of, palpable splenomegaly and thrombocytosis (platelets>450×10^9/L) or the presence of few immature peripheral cells. […]

With `Cc1ccc(NC(=O)c2ccc(CN3CCN(C)CC3)cc2)cc1Nc1nccc(-c2cccnc2)n1` [STI-571, imatinib mesylate] the “response to STI-571 exposure” value (KBM7 cells) was “apoptosis” and the “response to STI-571 exposure” value (KBM5 cells) was “G0/G1 cell cycle arrest”.
In the case of `Nc1ccn([C@@H]2CO[C@H](CO)O2)c(=O)n1` [β-L Oddc, (−)-β-L-Dioxolane-Cytidine], the IC50 (KBM-5 cells) is reported as 500 to 1000 nM, the IC50 [1] is reported as 500 to 1000 nM and the IC50 (KBM-7 cells) is reported as 500 to 1000 nM. For the same molecule, the IC50 [2] was 500 to 1000 nM and the “patients in whom some responses were observed” value [3] was 4 patients.
